Test systems include OVCAR-8; SNB-75; UACC-62; SK-MEL-28; 786-0; KM12; HT-29; OVCAR-3; EKVX; NCI-H23; SK-MEL-5; RPMI-8226; SW-620; SF-295; SNB-19; NCI-H522; RXF 393; HOP-92.
What all share (assay): NCI-60 cell line screen, 48 h

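Briefly, cells in 96-well plates were exposed to five compound concentrations for 48 h, and endpoints were estimated by linear interpolation. GI50 marks 50% less growth.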 Activity calls are given as the source filed them. Rule as the data show it: active = GI50 up to about 1.1 µM and inactive = higher.

`Cc1c(C(=O)Nc2ccc(Cl)c(C(F)(F)F)c2)oc2cc(O)ccc2/c1=N\NC(N)=S`: the GI50 in the experiment with OVCAR-8, in the experiment on SNB-75, in the experiment with UACC-62, with SK-MEL-28, in the experiment with 786-0 and in the experiment with KM12 was > 100 µM (inactive) throughout. The GI50 in the experiment with HT-29, in the experiment on OVCAR-3, in the experiment on EKVX, in the experiment on NCI-H23, in the experiment with SK-MEL-5 and in the experiment on RPMI-8226 was > 100 µM (inactive) throughout. In addition, the GI50 in the experiment on SW-620, in the experiment with SF-295, in the experiment on SNB-19, with NCI-H522 and with RXF 393 was > 100 µM (inactive) in each case.

Take `N=C(N)NNC(=O)CCCCCCCC(=O)NNC(=N)N`: the GI50 with UACC-62, in the experiment with SK-MEL-28, with 786-0, in the experiment with KM12, in the experiment on HT-29 and in the experiment on EKVX was > 100 µM (inactive) throughout. Further, the GI50 was > 100 µM (inactive) with NCI-H23; > 100 µM (inactive) in the experiment with SK-MEL-5; 10.4 µM (inactive) with SW-620; > 100 µM (inactive) in the experiment on SF-295; > 100 µM (inactive) with SNB-19; > 100 µM (inactive) in the experiment with RXF 393.

As for `CCOC(=O)c1cc(/C=C/C(C)=C/C(=O)OC)oc1C`, the GI50 with OVCAR-8, with SNB-75, with UACC-62, with SK-MEL-28, with 786-0 and in the experiment on KM12 was > 100 µM (inactive) throughout. For the same compound, the GI50 in the experiment on HT-29, in the experiment on OVCAR-3, with EKVX, in the experiment on NCI-H23, in the experiment with HOP-92 and in the experiment on RPMI-8226 was > 100 µM (inactive) each time. For the same compound, the GI50 in the experiment with SW-620 is > 100 µM (inactive); with SF-295 it was > 100 µM (inactive); in the experiment with SNB-19, > 100 µM (inactive); in the experiment with NCI-H522, 45.6 µM (inactive).

Turning to `CCOC(=O)C1=C(Nc2cccc3ccccc23)OCC1=O`, the GI50 with OVCAR-8 is > 100 µM (inactive); in the experiment with SNB-75, > 100 µM (inactive); in the experiment on UACC-62, > 100 µM (inactive); in the experiment on SK-MEL-28, 43.5 µM (inactive); in the experiment with 786-0, > 100 µM (inactive); in the experiment with KM12, > 100 µM (inactive). Moreover, the GI50 with HT-29, in the experiment with OVCAR-3, in the experiment on EKVX, in the experiment on NCI-H23, in the experiment on HOP-92 and in the experiment with SK-MEL-5 was > 100 µM (inactive) each time. In addition, the GI50 in the experiment on RPMI-8226, in the experiment on SW-620, with SNB-19 and with NCI-H522 was > 100 µM (inactive) throughout.

As to `c1ccc2c(c1)CCc1c(-c3n[nH]c4c3CCc3ccccc3-4)n[nH]c1-2`, the GI50 is > 100 µM (inactive) in the experiment on OVCAR-8; 56.5 µM (inactive) with SNB-75; > 100 µM (inactive) in the experiment on UACC-62; > 100 µM (inactive) in the experiment on SK-MEL-28; > 100 µM (inactive) in the experiment with 786-0; > 100 µM (inactive) in the experiment on KM12. In addition, the GI50 in the experiment with HT-29 is 76.7 µM (inactive); with OVCAR-3, > 100 µM (inactive); in the experiment with EKVX, > 100 µM (inactive); in the experiment on NCI-H23, > 100 µM (inactive); in the experiment with HOP-92, > 100 µM (inactive); in the experiment with SK-MEL-5, > 100 µM (inactive). Moreover, the GI50 with SW-620, in the experiment on SF-295 and with SNB-19 was > 100 µM (inactive) throughout.

On to `CCC1=CC2CN3Cn4c(c(COCc5c6n(c7ccccc57)CN5CC7C=C(CC)C5C6(C(=O)OC)C7)c5ccccc54)C(C(=O)OC)(C2)C13`, for which the GI50 with OVCAR-8, with UACC-62, with SK-MEL-28, with 786-0, with KM12 and with HT-29 was > 100 µM (inactive) in each case. The GI50 with OVCAR-3, in the experiment with EKVX, in the experiment on NCI-H23, with SK-MEL-5, in the experiment on RPMI-8226 and in the experiment with SW-620 was > 100 µM (inactive) in each case. Further, the GI50 in the experiment on SF-295, with SNB-19, in the experiment with NCI-H522 and in the experiment with RXF 393 was > 100 µM (inactive) throughout.

As for `Nc1ccc(C(=O)NN2C(=O)C(Cl)C2c2ccc([N+](=O)[O-])cc2)cc1` (stereo not given), the GI50 in the experiment on OVCAR-8 was 14.6 µM (inactive); with SNB-75, 10.2 µM (inactive); in the experiment with UACC-62, 8.59 µM (inactive); in the experiment on SK-MEL-28 it was 7.23 µM (inactive); in the experiment on 786-0, 3.87 µM (inactive); in the experiment with KM12 it was 10.5 µM (inactive). Also, the GI50 in the experiment on HT-29 was 8.87 µM (inactive); with OVCAR-3, 3.71 µM (inactive); in the experiment with EKVX it was 7.59 µM (inactive); with NCI-H23, 7 µM (inactive); in the experiment with HOP-92 it was 17.5 µM (inactive); in the experiment with SK-MEL-5 it was 15.5 µM (inactive). The GI50 in the experiment with RPMI-8226 was 15.4 µM (inactive); with SW-620 it was 11.1 µM (inactive); with SF-295, 13.8 µM (inactive); in the experiment on SNB-19 it was 13.1 µM (inactive); with NCI-H522, 1.73 µM (inactive).

In the case of `Cc1ccc([S+](c2ccccc2)c2cc(C)ccc2C)cc1` (stereo not given), the GI50 with OVCAR-8 is 4.59 µM (inactive); with SNB-75, < 0.01 µM (active); with UACC-62, 4.52 µM (inactive); in the experiment on 786-0 it was 35.2 µM (inactive); in the experiment with KM12 it was 2.85 µM (inactive); in the experiment on OVCAR-3, 2.26 µM (inactive). Besides, the GI50 is 1.17 µM (inactive) with EKVX; 0.53 µM (active) in the experiment on SK-MEL-5; 3.66 µM (inactive) with RPMI-8226; 5.64 µM (inactive) in the experiment on SW-620; 12.4 µM (inactive) with SF-295; 4.38 µM (inactive) in the experiment with SNB-19. In addition, in the experiment on NCI-H522, the GI50 was 3.13 µM (inactive).

For `N=C(N)N/N=C/c1c[nH]c2ccccc12`, the GI50 in the experiment with OVCAR-8, in the experiment on SNB-75, in the experiment on UACC-62, in the experiment with SK-MEL-28, in the experiment on 786-0 and in the experiment with KM12 was > 100 µM (inactive) throughout. Moreover, the GI50 in the experiment with HT-29, in the experiment with OVCAR-3, with EKVX, with NCI-H23, in the experiment with SK-MEL-5 and in the experiment on RPMI-8226 was > 100 µM (inactive) throughout. The GI50 is > 100 µM (inactive) in the experiment with SW-620; > 100 µM (inactive) in the experiment with SF-295; > 100 µM (inactive) in the experiment on SNB-19; 74.6 µM (inactive) in the experiment on NCI-H522; > 100 µM (inactive) with RXF 393.

Take `CN(C)c1ccc(C(C=C2c3ccccc3Sc3ccccc32)=C(C#N)C#N)cc1`: the GI50 in the experiment on OVCAR-8 was 94.8 µM (inactive); in the experiment with SNB-75, 17.1 µM (inactive); with UACC-62 it was 57.4 µM (inactive); in the experiment on SK-MEL-28 it was > 100 µM (inactive); in the experiment on 786-0, 92.3 µM (inactive); with KM12 it was > 100 µM (inactive). The GI50 in the experiment with HT-29 was > 100 µM (inactive); in the experiment on OVCAR-3, 45.7 µM (inactive); in the experiment with EKVX, > 100 µM (inactive); with NCI-H23, > 100 µM (inactive); in the experiment with SK-MEL-5 it was > 100 µM (inactive); in the experiment on RPMI-8226 it was > 100 µM (inactive). Moreover, the GI50 in the experiment with SW-620 was > 100 µM (inactive); with SF-295 it was 87.7 µM (inactive); in the experiment on SNB-19, 83.4 µM (inactive); with RXF 393, 29 µM (inactive).

For `CCOC(=O)/C(=C\c1ccccc1)C(=O)O`, the GI50 with OVCAR-8, in the experiment with UACC-62, in the experiment on SK-MEL-28, in the experiment on 786-0, in the experiment with KM12 and in the experiment on HT-29 was > 100 µM (inactive) in each case. The GI50 in the experiment with OVCAR-3, in the experiment on EKVX, in the experiment on NCI-H23, in the experiment on HOP-92, with SK-MEL-5 and in the experiment on RPMI-8226 was > 100 µM (inactive) throughout. In addition, the GI50 in the experiment on SW-620, with SF-295, in the experiment on SNB-19 and in the experiment with NCI-H522 was > 100 µM (inactive) each time.

Consider `CCCc1c2c([nH]c(=O)c1C)C(=O)c1[nH]c(=O)c(C)c(CCC)c1C2=O`, for which the GI50 with OVCAR-8 was 4.47 µM (inactive); in the experiment with SNB-75, 22.6 µM (inactive); in the experiment with SK-MEL-28 it was 23.6 µM (inactive); in the experiment on 786-0, 25.1 µM (inactive); with HT-29, 4.75 µM (inactive); with OVCAR-3, 1.46 µM (inactive). The GI50 was 23.2 µM (inactive) in the experiment with NCI-H23; 41 µM (inactive) in the experiment with HOP-92; 3.29 µM (inactive) with SK-MEL-5; 4.78 µM (inactive) in the experiment with SW-620; 47.6 µM (inactive) in the experiment with SF-295; 18.7 µM (inactive) in the experiment with SNB-19. Besides, the GI50 in the experiment with RXF 393 was 19.4 µM (inactive).

As for `CO[C@H](C(=O)O[C@H]1C(=O)N2CC[C@@H]3CCC[C@H]1C32C)c1ccccc1` (stereo not given in full), the GI50 in the experiment with OVCAR-8, in the experiment with UACC-62, with SK-MEL-28, in the experiment with 786-0, in the experiment on KM12 and in the experiment with HT-29 was > 100 µM (inactive) each time. In addition, the GI50 in the experiment with OVCAR-3, in the experiment with EKVX, in the experiment on NCI-H23, with SK-MEL-5, in the experiment on RPMI-8226 and in the experiment on SW-620 was > 100 µM (inactive) in each case. In addition, the GI50 with SF-295 is > 100 µM (inactive); in the experiment on SNB-19, > 100 µM (inactive); in the experiment on NCI-H522, 66.2 µM (inactive); with RXF 393, > 100 µM (inactive).

For the origin of these results see ChEMBL document CHEMBL1201862, “PubChem BioAssay data set” (2004).
